Experimental data taken from patent US20230099441A1, “HETEROCYCLIC COMPOUND, APPLICATION THEREOF, AND COMPOSITION CONTAINING SAME” (GenEros Biopharma Ltd., priority 2019, published 2023).

Tests used:
[1] = test system: STAT5 Y694 phosphorylation; test: Protein electrophoresis and blotting of STAT5 Y694 phosphorylation in Jurkat cells stimulated with human interferon beta; type: cell-based; details: for Example of Effect 1: Inhibiting Ability (Protein Electrophoresis and Blotting): observed pSTAT5 bands at 10 μM and 100 μM; for Inhibiting Ratio (0% for vehicle control): 1 hour pretreatment, 20 ng/ml human interferon beta 30 minutes, pSTAT5/GAPDH
How it was run: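 Serum-free Jurkat cells pretreated with compound 1 h, then stimulated with 20 ng/ml human interferon beta for 30 min at 37° C. pSTAT5 measured by western blot with chemiluminescence, normalized to GAPDH and expressed as percent of DMSO control.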

[2] = test system: STAT5 Y694 phosphorylation; test: HTRF experiment: STAT5 Y694 phosphorylation in Hela cells stimulated with human interferon beta; type: cell-based; details: 2 hours pretreatment, 10 nM human interferon beta 30 minutes
Experimental: Example of Effect 3: HTRF Experiment
Human Interferon 3 (IFN-0) (GenScript, Cat #P01574), STAT5 Y694 phosphorylation detection kit (STAT5 phospho-Y694 kit) (Cisbio; Cat #64AT5PEG).
Hela cells (ATCC American Standard Culture Center, CCL-2) were cultured in a 96-well plate at a density of 3×10^4 cells/well with DMEM medium containing 5% fetal bovine serum and maintained at 37° C. in a humidified incubator with 5% carbon dioxide overnight. On the second day, the original DMEM medium in the 96-well plate was sucked dry, and an equal volume of medium containing different concentrations of compounds (the mother liquor of the compound prepared by dimethyl sulfoxide was diluted in the medium at the required concentration) was added for pretreatment for 2 hours, and then it was placed in an incubator at 37° C. Then human interferon beta with a final concentration of 10 nM was added to stimulate, and it was gently shaken to mix well and then placed in an incubator at 37° C. for 30 minutes.
The medium was removed, an appropriate volume of PBS was added to wash, and then it was sucked dry. Then 40 microliters of 1× Lysis Buffer was added to each well and it was stood for 30 minutes at room temperature (1 ml 1× lysate preparation: 740 μl ddH2O was added to 250 μl 4× lysate and 10 μl Blocking reagent and it was mixed thoroughly). After 30 minutes, the cells were repeatedly blown until the lysis solution was not viscous (avoiding blowing out bubbles) to achieve sufficient lysis.
After overnight incubation, the signals of 665 nm and 620 nm were detected in a multifunctional microplate reader. The calculation formula for the detection of STAT5 Y694 phosphorylation is: Ratio=[(signal 665 nm)/(signal 620 nm)]×10^4. Treatment with dimethyl sulfoxide alone was the baseline control (Ratiobase), and the human interferon β stimulation without addition of the compound was the STAT5 Y694 full phosphorylation activation control (Ratiostimulation), the inhibition rate of STAT5 Y694 phosphorylation of different samples was normalized: Inhibition rate=[1−(RatioExperiment−Ratiobase)/(Ratiostimulation−Ratiobase)]*100.

Row | Structure (SMILES) | Example of Effect 1: Inhibiting Ability (Protein Electrophoresis and Blotting) [1] | Example of Effect 3: Inhibiting Ratio@10 μM (HTRF Experiment) [2] [%] | Inhibiting Ratio (0% for vehicle control) ([1]; 1 μM) [%] | Inhibiting Ratio (0% for vehicle control) ([1]; 10 μM) [%] | Inhibiting Ratio (0% for vehicle control) ([1]; 100 μM) [%]
1 | O=C1CN(C2CCN(C(=O)Cc3ccc(C(F)(F)F)cc3)CC2)c2ccccc2N1 [GEN1-052, 4-(1-(2-(4-(trifluoromethyl)phenyl)acetyl)piperidin-4-yl)-3,4-dihydroquinoxaline-2(1H)-one] | + | 8.83 |  |  | 
2 | Nc1nc2ccccc2n1C1CCN(C(=O)Cc2ccc(C(F)(F)F)cc2)CC1 [GEN1-055, 1-(4-(2-amino-1H-benzo[d]imidazol-1-yl)piperidin-1-yl)-2-(4-(trifluoromethyl)phenyl)ethanone] | + | 16.88 | 25.0 | 50.0 | 89.6
3 | CC(=O)Nc1ccccc1NC1CCN(C(=O)Cc2ccc(C(F)(F)F)cc2)CC1 [GEN1-057, N-(2-((1-(2-(4-(trifluoromethyl)phenyl)acetyl)piperidin-4-yl)amino)phenyl)acetamide] | ++ | 66.22 |  |  | 
4 | O=C(Cc1ccc2ncccc2c1)N1CCC(n2c(=O)[nH]c3ccccc32)CC1 [GEN1-075, 1-(1-(2-(quinolin-6-yl)acetyl)piperidin-4-yl)-1H-benzo[d]imidazol-2(3H)-one] | + | 10.79 |  |  | 
5 | O=C(Cc1ccc(C(F)(F)F)cc1)N1CCC(n2c(=O)[nH]c3ccc(C4CC4)cc32)CC1 [GEN1-089, 6-cyclopropyl-1-(1-(2-(4-(trifluoromethyl)phenyl)acetyl)piperidin-4-yl)-1H-benzo[d]imidazol-2(3H)-one] | + | 7.83 |  |  | 
6 | O=C(Cc1ccc(C(F)(F)F)cc1)N1CCC(n2c(=O)[nH]c3cccc([N+](=O)[O-])c32)CC1 [GEN1-091, 7-nitro-1-(1-(2-(4-(trifluoromethyl)phenyl)acetyl)piperidin-4-yl)-1H-benzo[d]imidazol-2(3H)-one] | + | 17.60 |  |  | 
7 | O=C(C[C@H]1CC[C@@H](C(F)(F)F)CC1)N1CCC(n2c(=O)[nH]c3ccccc32)CC1 [GEN1-107, (Cis)-1-(1-(2-(4-(trifluoromethyl)cyclohexyl)acetyl)piperidin-4-yl)-1H-benzo[d]imidazol-2(3H)-one] | + | 37.09 |  |  | 
8 | O=C(C[C@H]1CC[C@H](C(F)(F)F)CC1)N1CCC(n2c(=O)[nH]c3ccccc32)CC1 [GEN1-108, (trans)-1-(1-(2-(4-(trifluoromethyl)cyclohexyl)acetyl)piperidin-4-yl)-1H-benzo[d]imidazol-2(3H)-one] | + | 38.81 |  |  | 
9 | O=C(Cc1ccc2c(c1)OCO2)N1CCC(n2c(=O)[nH]c3cccc(C(F)(F)F)c32)CC1 [GEN1-116, 1-(1-(2-(benzo[d][1,3]dioxol-5-yl)acetyl)piperidin-4-yl)-7-(trifluoromethyl)-1,3-dihydro-2H-benzo[d]imidazol-2-one] | + | 35.01 |  |  | 
10 | O=C(Cc1ccc2ncccc2c1)N1CCC(n2c(=O)[nH]c3cccc(C(F)(F)F)c32)CC1 [GEN1-117, 1-(1-(2-(quinolin-6-yl)acetyl)piperidin-4-yl)-7-(trifluoromethyl)-1H-benzo[d]imidazol-2(3H)-one] | ++ | 89.31 |  |  | 
11 | CN(C)c1ccc(CC(=O)N2CCC(n3c(=O)[nH]c4cccc(C(F)(F)F)c43)CC2)cc1 [GEN1-118, 1-(1-(2-(4-(dimethylamino)phenyl)acetyl)piperidin-4-yl)-7-(trifluoromethyl)-1,3-dihydro-2H-benzo[d]imidazol-2-one] | + | 27.57 |  |  | 
12 | O=c1[nH]c2ccccc2n1C1CCN(C(=S)Cc2ccc(C(F)(F)F)cc2)CC1 [GEN1-128] | + | 13.88 |  |  | 
13 | O=C1CN(C2CCN(C(=O)Cc3ccc(C(F)(F)F)cc3)CC2)c2cccc(C(F)(F)F)c2N1 [GEN1-134, 8-(trifluoromethyl)-4-(1-(2-(4-(trifluoromethyl)phenyl)acetyl)piperidin-4-yl)-3,4-dihydroquinoxaline-2(1H)-one] | − | 3.06 |  |  | 
14 | O=C(Cc1ccc2ncccc2c1)N1CCC(n2c(=S)[nH]c3ccccc32)CC1 [GEN1-137, 2-(quinolin-6-yl)-1-(4-(2-thio-2,3-dihydro-1H-benzo(d)imidazol-1-yl)piperidin-1-yl)ethan-1-one] | + | 19.51 |  |  | 
15 | O=C(Cc1ccc2nccnc2c1)N1CCC(n2c(=O)[nH]c3cccc(C(F)(F)F)c32)CC1 [GEN1-140, 1-(1-(2-(quinoxalin-6-yl)acetyl)piperidin-4-yl)-7-(trifluoromethyl)-1,3-dihydro-2H-benzo[d]imidazol-2-one] | + | 53.79 |  |  | 
16 | O=C(Nc1ccc(C(F)(F)F)cc1)N1CCC(n2c(=O)[nH]c3cccc(C(F)(F)F)c32)CC1 [GEN1-149, 4-(2-oxo-7-(trifluoromethyl)-2,3-dihydro-1H-benzo[d]imidazol-1-yl)-N-(4-(trifluoromethyl)phenyl)piperidin-1-carboxamide] | + | 0.49 |  |  | 
17 | N#Cc1cccc2[nH]c(=O)n(C3CCN(C(=O)Cc4ccc5ncccc5c4)CC3)c12 [GEN1-151, 2-oxo-3-(1-(2-(quinolin-6-yl)acetyl)piperidin-4-yl)-2,3-dihydro-1H-benzo[d]imidazol-4-carbonitrile] | + | 39.02 |  |  | 
18 | O=C(Cc1ccc(C(F)(F)F)cc1)N1CCC(n2c(=O)[nH]c3c(N4CCOCC4)cccc32)CC1 [GEN1-154, 4-morpholino-1-(1-(2-(4-(trifluoromethyl)phenyl)acetyl)piperidin-4-yl)-1H-benzo[d]imidazol-2(3H)-one] | − | 6.10 |  |  | 
19 | O=C(Cc1ccc(Cl)cc1)N1CCC(n2c(=O)[nH]c3cccc(C(F)(F)F)c32)CC1 [GEN1-156, 1-(1-(2-(4-chlorophenyl)acetyl)piperidin-4-yl)-7-(trifluoromethyl)-1H-benzo[d]imidazol-2(3H)-one] | + | 47.04 |  |  | 
20 | O=C(Cc1ccc(Br)cc1)N1CCC(n2c(=O)[nH]c3cccc(C(F)(F)F)c32)CC1 [GEN1-157, 1-(1-(2-(4-bromophenyl)acetyl)piperidin-4-yl)-7-(trifluoromethyl)-1H-benzo[d]imidazol-2(3H)-one] | + | 28.83 |  |  | 
21 | CC(C)(C(=O)N1CCC(n2c(=O)[nH]c3cccc(C(F)(F)F)c32)CC1)c1ccc(C(F)(F)F)cc1 [GEN1-158, 1-(1-(2-methyl-2-(4-(trifluoromethyl)phenyl)propionyl)piperidin-4-yl)-7-(trifluoromethyl)-1H-benzo[d]imidazol-2(3H)-one] | − | 0.16 |  |  | 
22 | O=C(Cc1ccc2c(c1)OCCO2)N1CCC(n2c(=O)[nH]c3cccc(C(F)(F)F)c32)CC1 [GEN1-159, 1-(1-(2-(2,3-dihydrobenzo[b][1,4]dioxin-6-yl)acetyl)piperidin-4-yl)-7-(trifluoromethyl)-1,3-dihydro-2H-benzo[d]imidazol-2-one] | + | 22.99 |  |  | 
